# Paper PMC3961306, “Comparison of the Cancer Gene Targeting and Biochemical Selectivities of All Targeted Kinase Inhibitors Approved for Clinical Use” (PLoS ONE, 2014)
# Like-named read-outs stand apart in the source and are kept apart here.
# Key:
# [1] = system: forty-four human cancer cell lines; assay: Cell proliferation assay (ATPlite, 72 hours) in the 44 cell line Oncolines panel; assay type: cell-based; settings: Homo sapiens
# [2] = biological target: T1, panel of more than 300 wild-type and mutant kinases (313 kinase panel) (Homo sapiens, UniProt O14920); assay: Kinase profiling in a biochemical assay panel (mobility shift assays and ELISA), %-inhibition at 1 μM; selectivity entropy; settings: kinase IKKβ; compound at 1 μM
# T1 sequence (O14920 1-756): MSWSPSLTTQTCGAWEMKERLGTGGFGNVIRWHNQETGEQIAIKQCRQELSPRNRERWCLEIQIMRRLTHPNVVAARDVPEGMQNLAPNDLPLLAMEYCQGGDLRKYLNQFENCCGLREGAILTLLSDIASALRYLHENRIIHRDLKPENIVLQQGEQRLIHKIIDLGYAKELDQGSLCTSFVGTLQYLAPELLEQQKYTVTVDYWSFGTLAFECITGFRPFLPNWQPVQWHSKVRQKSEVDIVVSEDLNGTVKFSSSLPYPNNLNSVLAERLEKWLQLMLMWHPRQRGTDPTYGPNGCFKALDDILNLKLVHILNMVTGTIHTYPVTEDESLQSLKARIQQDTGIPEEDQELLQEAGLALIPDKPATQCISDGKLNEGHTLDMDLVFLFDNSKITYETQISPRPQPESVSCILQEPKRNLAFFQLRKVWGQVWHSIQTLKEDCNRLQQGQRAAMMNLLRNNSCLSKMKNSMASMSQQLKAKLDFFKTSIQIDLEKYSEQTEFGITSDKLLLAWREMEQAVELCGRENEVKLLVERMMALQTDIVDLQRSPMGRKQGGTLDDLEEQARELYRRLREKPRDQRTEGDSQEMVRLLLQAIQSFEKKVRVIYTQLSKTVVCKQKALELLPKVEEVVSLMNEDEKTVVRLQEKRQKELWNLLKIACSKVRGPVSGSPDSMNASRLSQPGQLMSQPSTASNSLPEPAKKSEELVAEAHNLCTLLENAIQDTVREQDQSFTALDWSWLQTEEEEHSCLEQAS
# [3] = biological target: panel of more than 300 wild-type and mutant kinases (313 kinase panel) (Homo sapiens, UniProt Q9H2G2); assay: as above; settings: kinase SLK; 1 μM
# [4] = biological target: T2, panel of more than 300 wild-type and mutant kinases (313 kinase panel) (Homo sapiens, UniProt Q96PF2); assay: as above; settings: kinase TSSK2; 1 μM
# T2 sequence (Q96PF2 1-358): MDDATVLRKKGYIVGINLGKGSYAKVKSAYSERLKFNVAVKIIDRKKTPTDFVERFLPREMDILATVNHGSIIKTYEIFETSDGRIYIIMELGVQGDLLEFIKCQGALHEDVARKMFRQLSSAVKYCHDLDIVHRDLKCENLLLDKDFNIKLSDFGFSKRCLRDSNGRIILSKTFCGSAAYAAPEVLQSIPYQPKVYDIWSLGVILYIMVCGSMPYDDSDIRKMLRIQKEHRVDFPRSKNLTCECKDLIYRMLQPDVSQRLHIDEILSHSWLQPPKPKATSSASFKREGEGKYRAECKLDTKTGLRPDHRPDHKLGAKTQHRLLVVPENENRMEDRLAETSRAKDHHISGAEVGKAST
# [5] = biological target: panel of more than 300 wild-type and mutant kinases (313 kinase panel) (Homo sapiens, UniProt P29376); assay: as above; settings: kinase LTK; compound at 1 μM
# [6] = biological target: panel of more than 300 wild-type and mutant kinases (313 kinase panel) (Homo sapiens, UniProt Q13177); assay: as above; settings: kinase PAK2; 1 μM
# [7] = biological target: panel of more than 300 wild-type and mutant kinases (313 kinase panel) (Homo sapiens, UniProt O95819); assay: as above; settings: kinase HGK; compound at 1 μM
# [8] = biological target: panel of more than 300 wild-type and mutant kinases (313 kinase panel) (Homo sapiens, UniProt Q15303); assay: as above; settings: kinase HER4; compound at 1 μM
# [9] = biological target: panel of more than 300 wild-type and mutant kinases (313 kinase panel) (Homo sapiens, UniProt Q16288); assay: as above; settings: kinase TRKC; 1 μM
# [10] = biological target: panel of more than 300 wild-type and mutant kinases (313 kinase panel) (Homo sapiens, UniProt Q9H1R3); assay: as above; settings: kinase skMLCK; 1 μM
# panel of more than 300 wild-type and mutant kinases (313 kinase panel) (Homo sapiens, UniProt Q15303), sequence (Q15303 26-1308, change not shown): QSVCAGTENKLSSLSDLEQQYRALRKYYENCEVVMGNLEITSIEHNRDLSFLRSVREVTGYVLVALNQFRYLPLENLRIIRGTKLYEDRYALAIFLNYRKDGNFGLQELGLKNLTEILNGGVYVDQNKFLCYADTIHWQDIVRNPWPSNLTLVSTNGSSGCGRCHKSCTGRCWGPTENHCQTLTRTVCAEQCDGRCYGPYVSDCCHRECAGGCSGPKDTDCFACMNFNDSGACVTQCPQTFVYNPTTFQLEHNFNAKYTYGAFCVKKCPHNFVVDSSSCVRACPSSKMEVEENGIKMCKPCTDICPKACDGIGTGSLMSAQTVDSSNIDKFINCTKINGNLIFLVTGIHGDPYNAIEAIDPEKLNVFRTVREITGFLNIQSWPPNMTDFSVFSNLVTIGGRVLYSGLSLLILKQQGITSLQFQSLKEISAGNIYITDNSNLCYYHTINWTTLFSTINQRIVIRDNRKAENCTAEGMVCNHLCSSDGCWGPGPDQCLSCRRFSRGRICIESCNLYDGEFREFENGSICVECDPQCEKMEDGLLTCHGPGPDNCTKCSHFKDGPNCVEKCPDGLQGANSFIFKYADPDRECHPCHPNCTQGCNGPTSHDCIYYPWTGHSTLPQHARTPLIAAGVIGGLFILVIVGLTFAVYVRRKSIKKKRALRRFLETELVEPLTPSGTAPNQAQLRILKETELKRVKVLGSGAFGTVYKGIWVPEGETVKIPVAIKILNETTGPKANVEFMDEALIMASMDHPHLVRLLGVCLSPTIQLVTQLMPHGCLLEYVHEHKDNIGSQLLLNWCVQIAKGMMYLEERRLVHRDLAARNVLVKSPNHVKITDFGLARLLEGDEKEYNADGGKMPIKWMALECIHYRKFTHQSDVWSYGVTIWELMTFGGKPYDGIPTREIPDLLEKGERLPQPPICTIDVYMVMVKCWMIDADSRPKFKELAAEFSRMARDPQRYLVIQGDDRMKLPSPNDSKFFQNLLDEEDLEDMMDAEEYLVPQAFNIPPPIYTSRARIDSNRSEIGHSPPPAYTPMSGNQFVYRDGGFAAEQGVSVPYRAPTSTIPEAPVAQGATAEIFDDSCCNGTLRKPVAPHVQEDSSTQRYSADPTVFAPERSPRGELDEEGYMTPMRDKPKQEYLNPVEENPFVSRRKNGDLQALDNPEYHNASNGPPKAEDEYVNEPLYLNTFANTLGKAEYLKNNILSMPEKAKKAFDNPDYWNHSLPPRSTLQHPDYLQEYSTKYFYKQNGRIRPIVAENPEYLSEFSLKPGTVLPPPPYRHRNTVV
compound,measurement,setting,value
CNC(=O)c1cc(Oc2ccc(NC(=O)Nc3ccc(Cl)c(C(F)(F)F)c3)c(F)c2)ccn1 [regorafenib],IC50,"[1]; A 172, read-out: cell panel IC50, A-172",3.95 µM
same,IC50,"[1]; A204, cell line A-204, read-out: cell panel IC50, A-204",3.01 µM
same,IC50,"[1]; A498, read-out: cell panel IC50, A-498",3.41 µM
same,IC50,"[1]; A549, read-out: cell panel IC50, A-549",2.92 µM
same,IC50,"[1]; A-375, cell line A375, read-out: cell panel IC50, A375",3.56 µM
same,IC50,"[1]; A-427, read-out: cell panel IC50, A-427",8.73 µM
same,IC50,"[1]; AU565, read-out: cell panel IC50, AU-565",0.687 µM
same,IC50,"[1]; BT-549, read-out: cell panel IC50, BT-549",16.6 µM
same,IC50,"[1]; HCT-116, read-out: cell panel IC50, HCT-116",3.51 µM
same,IC50,"[1]; K562, read-out: cell panel IC50, K-562",4.17 µM
same,IC50,"[1]; LS174T, read-out: cell panel IC50, LS 174T",3.76 µM
same,IC50,"[1]; SHP77, cell line SHP-77, read-out: cell panel IC50, SHP-77",> 31.6 µM
same,IC50,"[1]; SW-620, cell line SW620, read-out: cell panel IC50, SW620",9.66 µM
same,IC50,"[1]; U2OS, cell line U-2 OS, read-out: cell panel IC50, U-2 OS",3.08 µM
same,IC50,"[1]; cell line J82, read-out: cell panel IC50, J82",3.27 µM
same,IC50,"[1]; cell line PA-1, read-out: cell panel IC50, PA-1",2.96 µM
same,IC50,"[1]; cell line SJCRH30, read-out: cell panel IC50, SJCRH30",10.7 µM
same,IC50,"[1]; cell line SR, read-out: cell panel IC50, SR",3.1 µM
same,IC50,"[1]; U-87 MG cell line, ATPlite, 72 hours, read-out: IC50 in cell proliferation assay (table S5 cellpanel data)",11.8 µM
same,IC50,"[1]; cell line 769-P, read-out: cell panel IC50, 769-P",2.9 µM
same,IC50,"[1]; cell line 786-0, read-out: cell panel IC50, 786-0",7.29 µM
same,IC50,"[1]; cell line ACHN, read-out: cell panel IC50, ACHN",1.82 µM
same,IC50,"[1]; cell line AN3 CA, read-out: cell panel IC50, AN3 CA",5.84 µM
same,IC50,"[1]; cell line BT-20, read-out: cell panel IC50, BT-20",3.93 µM
same,IC50,"[1]; cell line BxPC-3, read-out: cell panel IC50, BxPC-3",4 µM
same,IC50,"[1]; cell line C-33 A, read-out: cell panel IC50, C-33 A",1.02 µM
same,IC50,"[1]; cell line CAL 27, read-out: cell panel IC50, CAL 27",1.54 µM
same,IC50,"[1]; cell line CCRF-CEM, read-out: cell panel IC50, CCRF-CEM",9.54 µM
same,IC50,"[1]; cell line DLD-1, read-out: cell panel IC50, DLD-1",3.54 µM
same,IC50,"[1]; cell line FaDu, read-out: cell panel IC50, FaDu",1.62 µM
same,IC50,"[1]; cell line HCT-15, read-out: cell panel IC50, HCT-15",3.15 µM
same,IC50,"[1]; cell line Hs 578T, read-out: cell panel IC50, Hs 578T",22.6 µM
same,IC50,"[1]; cell line Jurkat E6.1, read-out: cell panel IC50, Jurkat E6.1",2.52 µM
same,IC50,"[1]; cell line LoVo, read-out: cell panel IC50, LoVo",2.7 µM
same,IC50,"[1]; cell line MG-63, read-out: cell panel IC50, MG-63",3.63 µM
same,IC50,"[1]; cell line MOLT-4, read-out: cell panel IC50, MOLT-4",3.31 µM
same,IC50,"[1]; cell line MeWo, read-out: cell panel IC50, MeWo",30.8 µM
same,IC50,"[1]; cell line NCI-H82, read-out: cell panel IC50, NCI-H82",3.58 µM
same,IC50,"[1]; cell line NCI-H460, read-out: cell panel IC50, NCI-H460",3.95 µM
same,IC50,"[1]; cell line OVCAR-3, read-out: cell panel IC50, OVCAR-3",3.63 µM
same,IC50,"[1]; cell line RPMI-7951, read-out: cell panel IC50, RPMI-7951",5.88 µM
same,IC50,"[1]; cell line SK-N-AS, read-out: cell panel IC50, SK-N-AS",6.43 µM
same,IC50,"[1]; cell line SW48, read-out: cell panel IC50, SW48",1.01 µM
same,IC50,"[1]; cell line SW480, read-out: cell panel IC50, SW480",> 31.6 µM
same,%-inhibition of IKKβ,[2],-4.61%
same,%-inhibition of SLK,[3],29%
same,%-inhibition of TSSK2,[4],-11%
same,%-inhibition of LTK,[5],-1.56%
same,%-inhibition of PAK2,[6],-1.3%
same,%-inhibition of HGK,[7],53%
same,%-inhibition of HER4,[8],3.81%
same,%-inhibition of TRKC,[9],93%
same,%-inhibition of skMLCK,[10],6.59%
